# Results reported in US7829665B2 (priority 2005, dated 2010).
# Read-outs that look alike come from different tables or passages of the source.
# Experiments:
# [1] = target: T1, full-length NS3/NS4A-2 (HCV NS3 protease) (Hepatitis C virus genotype 1a, UniProt P27958); assay: NS3-NS4 protease assay / NS3 inhibition assay (RETS1 substrate, fluorescence kinetic read); type: biochemical
# T1 construct: Recombinant E. coli or Baculovirus full-length NS3 was diluted to 3.33 μM with assay buffer; made in house; host or cells: E. coli or baculovirus (BV) expression system
# How it was run: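 Ki values come from IC50 fits corrected via Ki=IC50/(1+[S]/Km), with Km 2.03 μM for E. coli and 1.74 μM for baculovirus full-length NS3. Enzyme (2 or 3 nM NS3, respectively, complexed with NS4A-2) sat with compound, top concentration 50 microM, for 10 min at room temperature. Cleavage of RETS1 (8 μM working solution) was then followed by fluorescence (335/495 nm) over 30 min.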
# [2] = test system: HCV sub-genomic replicon in GS4.3 cells (HuH-7 hepatoma cells); assay: Quantitation by ELISA of Neomycin phosphotransferase II (NPTII) in the HCV sub-genomic replicon, GS4.3; type: cell-based, hepatitis C virus; details: Hepatitis C virus, Huh-7; GS4.3 cells, 72 h incubation, NPTII ELISA; read-out: Replicon EC50
# How it was run: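 Replicon-bearing HuH-7 (GS4.3) cells were exposed to compounds for 72 h in G418-free medium, top final concentration 10 μM, 1% DMSO. Lysates went to an NPTII ELISA read at 450 nm. Signal was normalised to DMSO-treated wells and EC50 was derived by four-parameter curve fitting.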
# [3] = recombinant E. coli or Baculovirus full-length NS3 with NS4A-2, read-out: NS3-NS4 IC50
# T1 sequence (P27958 1027-1657): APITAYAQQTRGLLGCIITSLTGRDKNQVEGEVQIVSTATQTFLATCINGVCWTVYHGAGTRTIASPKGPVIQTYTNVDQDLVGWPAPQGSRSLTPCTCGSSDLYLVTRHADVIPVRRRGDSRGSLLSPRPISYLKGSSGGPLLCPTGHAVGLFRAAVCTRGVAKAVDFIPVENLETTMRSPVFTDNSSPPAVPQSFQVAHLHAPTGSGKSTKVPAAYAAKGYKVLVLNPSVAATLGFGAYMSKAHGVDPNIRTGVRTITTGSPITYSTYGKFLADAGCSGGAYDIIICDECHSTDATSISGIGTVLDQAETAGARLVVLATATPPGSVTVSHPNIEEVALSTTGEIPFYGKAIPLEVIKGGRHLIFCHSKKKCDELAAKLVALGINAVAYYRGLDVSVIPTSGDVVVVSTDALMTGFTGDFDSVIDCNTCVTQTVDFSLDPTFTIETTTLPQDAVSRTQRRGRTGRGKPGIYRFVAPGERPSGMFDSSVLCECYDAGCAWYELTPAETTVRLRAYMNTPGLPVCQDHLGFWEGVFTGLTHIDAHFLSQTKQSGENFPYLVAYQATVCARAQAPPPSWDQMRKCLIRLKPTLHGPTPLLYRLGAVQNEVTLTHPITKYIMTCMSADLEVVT
smiles,measurement,setting,value
COc1cccc(CN[C@H]2CCCCC/C=C\[C@@H]3C[C@@]3(C(=O)NS(=O)(=O)C3CC3)NC(=O)[C@@H]3C[C@@H](OC(=O)N4Cc5cccc(F)c5C4)CN3C2=O)c1 [Compound 906],IC50,[1]; [3],< 100 nM
same,EC50,[2],< 100 nM
O=C1N[C@]2(C(=O)NS(=O)(=O)C3CC3)C[C@H]2/C=C\CCCCC[C@H](Nc2nc(-c3ccccc3)cs2)C(=O)N2C[C@H](OC(=O)N3Cc4cccc(Cl)c4C3)C[C@@H]12 [Compound 929],IC50,[1]; [3],< 100 nM
same,EC50,[2],< 100 nM
CC(C)(C)OC(=O)N[C@H]1CCCCC/C=C\[C@@H]2C[C@@]2(C(=O)NS(=O)(=O)c2ccc(Cl)s2)NC(=O)[C@@H]2C[C@@H](OC(=O)N3Cc4cccc(Cl)c4C3)CN2C1=O [Compound 164],IC50,[1]; [3],< 100 nM
same,EC50,[2],< 100 nM
CC(C)OC(=O)N[C@H]1CCC(F)(F)CC/C=C\[C@@H]2C[C@@]2(C(=O)NS(=O)(=O)C2CC2)NC(=O)[C@@H]2C[C@@H](OC(=O)N3Cc4ccccc4C3)CN2C1=O [Compound 1012],IC50,[1]; [3],< 100 nM
same,EC50,[2],< 100 nM
CC(C)(C)OC(=O)N[C@H]1CCCCC/C=C\[C@@H]2C[C@@]2(C(=O)N[C@H]2CCS(=O)(=O)C2)NC(=O)[C@@H]2C[C@@H](OC(=O)N3Cc4cccc(F)c4C3)CN2C1=O [Compound 634],IC50,[1]; [3],< 1000 nM
same,EC50,[2],< 10000 nM
CC(C)(C)OC(=O)N[C@H]1CCC(F)(F)CC/C=C\[C@@H]2C[C@@]2(C(=O)NS(=O)(=O)C2CC2)NC(=O)[C@@H]2C[C@@H](OC(=O)N3Cc4ccccc4C3)CN2C1=O [Compound 1009],IC50,[1]; [3],< 100 nM
same,EC50,[2],< 100 nM
CC(C)(C)OC(=O)N[C@H]1CCCCC/C=C\[C@@H]2C[C@@]2(C(=O)O)NC(=O)[C@@H]2C[C@@H](OC(=O)N3Cc4ccc(C(F)(F)F)cc4C3)CN2C1=O [Compound 110],IC50,[1]; [3],< 1000 nM
same,EC50,[2],< 10000 nM
N#CNC(=O)[C@@]12C[C@H]1/C=C\CCCCC[C@H](NC(=O)OC1CCCC1)C(=O)N1C[C@H](OC(=O)N3Cc4cccc(F)c4C3)CC1C(=O)N2 (stereo partly drawn) [Compound 637],IC50,[1]; [3],< 100 nM
same,EC50,[2],> 10000 nM
CC(C)NS(=O)(=O)NC(=O)[C@@]12C[C@H]1/C=C\CCCCC[C@H](NC(=O)OC1CCCC1)C(=O)N1C[C@H](OC(=O)N3Cc4cccc(F)c4C3)C[C@H]1C(=O)N2 [Compound 218],IC50,[1]; [3],< 100 nM
same,EC50,[2],< 100 nM
N#CNC(=O)[C@@]12C[C@H]1/C=C\CCCCC[C@H](NC(=O)CCC(F)(F)F)C(=O)N1C[C@H](OC(=O)N3Cc4cccc(F)c4C3)CC1C(=O)N2 (stereo partly drawn) [Compound 642],IC50,[1]; [3],< 1000 nM
same,EC50,[2],> 10000 nM
[2H]C([2H])([2H])N(C([2H])([2H])[2H])S(=O)(=O)NC(=O)[C@@]12C[C@H]1/C=C\CCCCC[C@H](NC(=O)OC(C)(C)C)C(=O)N1C[C@H](OC(=O)N3Cc4ccccc4C3)C[C@H]1C(=O)N2 [Compound 204],IC50,[1]; [3],< 100 nM
same,EC50,[2],< 100 nM
CC(C)(C)OC(=O)N[C@H]1CCCCC/C=C\[C@@H]2C[C@@]2(C(=O)NCCO)NC(=O)[C@@H]2C[C@@H](OC(=O)N3Cc4cccc(F)c4C3)CN2C1=O [Compound 620],IC50,[1]; [3],< 1000 nM
same,EC50,[2],< 10000 nM
"CC(C)(C)OC(=O)N[C@H]1COCCCCC[C@@H]2C[C@@]2(C(=O)NS(=O)(=O)C2CC2)NC(=O)[C@@H]2C[C@@H](OC(=O)N3Cc4cccc(F)c4C3)CN2C1=O [Compound 1022, (2R,6S,13aR,14aR,16aS)-6-(tert-butoxycarbonylamino)-14a-(cyclopropylsulfonylcarbamoyl)-5,16-dioxohexadecahydro-1H-cyclopropa(i)pyrrolo[1,2-e][1,5,8]oxadiazacyclopentadecin-2-yl 4-fluoroisoindoline-2-carboxylate]",IC50,[1]; [3],< 100 nM
same,EC50,[2],< 100 nM
CC(C)(C)OC(=O)N[C@H]1CCC(F)(F)CC/C=C\[C@@H]2C[C@@]2(C(=O)NS(=O)(=O)C2CC2)NC(=O)[C@@H]2C[C@@H](OC(=O)N3Cc4cccc(F)c4C3)CN2C1=O [Compound 1002],IC50,[1]; [3],< 100 nM
same,EC50,[2],< 100 nM
CC(C)(C)OC(=O)N[C@H]1CCCCC/C=C\[C@@H]2C[C@@]2(C(=O)Nc2nccs2)NC(=O)[C@@H]2C[C@@H](OC(=O)N3Cc4cccc(F)c4C3)CN2C1=O [Compound 614],IC50,[1]; [3],< 1000 nM
same,EC50,[2],< 1000 nM
CC(C)(C)OC(=O)N[C@H]1CCCCC/C=C\[C@@H]2C[C@@]2(C(=O)NCc2cccc(C(O)C(F)(F)F)c2)NC(=O)[C@@H]2C[C@@H](OC(=O)N3Cc4cccc(F)c4C3)CN2C1=O (stereo partly drawn) [Compound 605],IC50,[1]; [3],< 1000 nM
same,EC50,[2],< 1000 nM
O=C1N[C@]2(C(=O)NCC3CC3)C[C@H]2/C=C\CCCCC[C@H](NC2CCC2)C(=O)N2C[C@H](OC(=O)N3Cc4cccc(F)c4C3)C[C@@H]12 [Compound 624],IC50,[1]; [3],< 10000 nM
same,EC50,[2],< 1000 nM
O=C(CCO)N[C@H]1CCCCC/C=C\[C@@H]2C[C@@]2(C(=O)NS(=O)(=O)C2CC2)NC(=O)[C@@H]2C[C@@H](OC(=O)N3Cc4cccc(F)c4C3)CN2C1=O [Compound 251],IC50,[1]; [3],< 100 nM
same,EC50,[2],< 10000 nM
O=C(NC1CCCC1)N[C@H]1CCCCC/C=C\[C@@H]2C[C@@]2(C(=O)NS(=O)(=O)C2CC2)NC(=O)C2C[C@@H](OC(=O)N3Cc4cccc(F)c4C3)CN2C1=O (stereo partly drawn) [Compound 178],IC50,[1]; [3],< 100 nM
same,EC50,[2],< 100 nM
O=C(CCC(F)(F)F)N[C@H]1CCCCC/C=C\[C@@H]2C[C@@]2(C(=O)O)NC(=O)[C@@H]2C[C@@H](OC(=O)N3Cc4cccc(F)c4C3)CN2C1=O [Compound 135],IC50,[1]; [3],< 100 nM
same,EC50,[2],< 10000 nM
N[C@H]1CCCCC/C=C\[C@@H]2C[C@@]2(C(=O)NS(=O)(=O)C2(Cc3ccccc3)CC2)NC(=O)[C@@H]2C[C@@H](OC(=O)N3Cc4cccc(Cl)c4C3)CN2C1=O [Compound 163],IC50,[1],< 100 nM
same,EC50,[2],< 10000 nM
O=C1N[C@]2(C(=O)NS(=O)(=O)C3CC3)C[C@H]2/C=C\CCCCC[C@H](Nc2nc(C(F)(F)F)cs2)C(=O)N2C[C@H](OC(=O)N3Cc4cccc(F)c4C3)C[C@@H]12 [Compound 926],IC50,[1]; [3],< 100 nM
same,EC50,[2],< 100 nM
N[C@H]1CCCCC/C=C\[C@@H]2C[C@@]2(C(=O)NS(=O)(=O)c2cccs2)NC(=O)[C@@H]2C[C@@H](OC(=O)N3Cc4cccc(Cl)c4C3)CN2C1=O [Compound 169],IC50,[1],< 100 nM
same,EC50,[2],< 10000 nM
O=C1N[C@]2(C(=O)NS(=O)(=O)C3CC3)C[C@H]2/C=C\CCCCC[C@H](NCc2ccccc2C(F)(F)F)C(=O)N2C[C@H](OC(=O)N3Cc4cccc(F)c4C3)C[C@@H]12 [Compound 917],IC50,[1]; [3],< 100 nM
same,EC50,[2],< 100 nM
CC(C)(C)OC(=O)N[C@H]1CCCCC/C=C\[C@@H]2C[C@@]2(C(=O)NS(=O)(=O)C2(Cc3ccccc3)CC2)NC(=O)[C@@H]2C[C@@H](OC(=O)N3Cc4cccc(Cl)c4C3)CN2C1=O [Compound 161],IC50,[1]; [3],< 100 nM
same,EC50,[2],< 100 nM
O=C1N[C@]2(C(=O)NS(=O)(=O)C3CC3)C[C@H]2/C=C\CCCCC[C@H](NCc2ccccc2)C(=O)N2C[C@H](OC(=O)N3Cc4cccc(F)c4C3)C[C@@H]12 [Compound 905],IC50,[1]; [3],< 100 nM
same,EC50,[2],< 100 nM
O=C1N[C@]2(C(=O)NS(=O)(=O)C3CC3)C[C@H]2/C=C\CCCCC[C@H](Nc2c(N3CCC3)c(=O)c2=O)C(=O)N2C[C@H](OC(=O)N3Cc4cccc(F)c4C3)C[C@@H]12 [Compound 193],IC50,[1]; [3],< 100 nM
same,EC50,[2],< 1000 nM
O=C1N[C@]2(C(=O)NS(=O)(=O)C3CC3)C[C@H]2/C=C\CCCCC[C@H](NCCCC(F)(F)F)C(=O)N2C[C@H](OC(=O)N3Cc4cccc(F)c4C3)C[C@@H]12 [Compound 902],IC50,[1]; [3],< 100 nM
same,EC50,[2],< 100 nM
CC(C)(C)OC(=O)N[C@H]1CCC(F)(F)CC/C=C\[C@@H]2C[C@@]2(C(=O)O)NC(=O)[C@@H]2C[C@@H](OC(=O)N3Cc4cccc(F)c4C3)CN2C1=O [Compound 1001],IC50,[1]; [3],< 100 nM
same,EC50,[2],< 10000 nM
CC(C)(C)OC(=O)N[C@H]1CCCCC/C=C\[C@@H]2C[C@@]2(C(=O)NS(=O)(=O)N2CCOCC2)NC(=O)[C@@H]2C[C@@H](OC(=O)N3Cc4cccc(F)c4C3)CN2C1=O [Compound 209],IC50,[1]; [3],< 100 nM
same,EC50,[2],< 100 nM
CC(C)(C)OC(=O)N[C@H]1CCCCC/C=C\[C@@H]2C[C@@]2(C(=O)NC(=O)N2CCOCC2)NC(=O)[C@@H]2C[C@@H](OC(=O)N3Cc4cccc(F)c4C3)CN2C1=O [Compound 234],IC50,[1]; [3],< 100 nM
same,EC50,[2],< 100 nM
O=C1N[C@]2(C(=O)NS(=O)(=O)C3CC3)C[C@H]2/C=C\CCCCC[C@H](Nc2c(N3CCC3)c(=O)c2=O)C(=O)N2C[C@H](OC(=O)N3CCc4ccccc4C3)C[C@@H]12 [Compound 242],IC50,[1]; [3],< 100 nM
same,EC50,[2],< 10000 nM
"O=C(N[C@H]1CCCCC/C=C\[C@@H]2C[C@@]2(C(=O)NS(=O)(=O)C2CC2)NC(=O)[C@H]2Cc3cc(Oc4cccc(Cl)c4)ccc3CN2C1=O)OC1CCCC1 [Compound 2005, Cyclopentyl (1aS,9S,17aR,19aR,Z)-15-(3-chlorophenoxy)-19a-(cyclopropylsulfonylcarbamoyl)-10,18-dioxo-1a,4,5,6,7,8,9,10,12,17,17a,18,19,19a-tetradecahydro-1H-11,14-diaza-bicyclo[13.1.0]hexadeca-1(15), 2-dieno[11,12-b]isoquinolin-9-ylcarbamate]",IC50,[1]; [3],< 100 nM
same,EC50,[2],< 1000 nM
